Source: ChEMBL document CHEMBL1201862, “PubChem BioAssay data set” (2004)
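In this assay, cells in 96-well plates receive the compound at five concentrations for 48 hours. Endpoints are linearly interpolated between the surrounding concentrations. The concentration for 50% growth inhibition is given as GI50.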 The source made the active and inactive calls. Rule as the data show it: active = GI50 up to about 1.1 µM and inactive = higher.

How the values were obtained:
Assay in all cases: growth of human tumour cells (NCI), 48 h
SK-OV-3 = system: SK-OV-3
786-0 = system: 786-0
SF-295 = system: SF-295
M14 = system: M14
UACC-62 = system: UACC-62
SN12C = system: SN12C
SK-MEL-5 = system: SK-MEL-5
KM12 = system: KM12
OVCAR-4 = system: OVCAR-4
KM-20L2 = system: KM-20L2
CAKI-1 = system: CAKI-1
A549 = system: A549
SF-539 = system: SF-539
IGROV-1 = system: IGROV-1
SK-MEL-28 = system: SK-MEL-28
NCI/ADR-RES = system: NCI/ADR-RES
MCF7 = system: MCF7
SR = system: SR
MDA-N = system: MDA-N
DU-145 = system: DU-145

Row | Compound | GI50 (SK-OV-3) | GI50 (786-0) | GI50 (SF-295) | GI50 (M14) | GI50 (UACC-62) | GI50 (SN12C) | GI50 (SK-MEL-5) | GI50 (KM12) | GI50 (OVCAR-4) | GI50 (KM-20L2) | GI50 (CAKI-1) | GI50 (A549) | GI50 (SF-539) | GI50 (IGROV-1) | GI50 (SK-MEL-28) | GI50 (NCI/ADR-RES) | GI50 (MCF7) | GI50 (SR) | GI50 (MDA-N) | GI50 (DU-145)
1 | O=C1c2cccc3c(Cl)ccc(c23)C(=O)N1CCCN1CCN(CCCN2C(=O)c3cccc4c(Cl)ccc(c34)C2=O)CC1 | > 100 µM (inactive) | 64.4 µM (inactive) | 97.1 µM (inactive) | > 100 µM (inactive) | > 100 µM (inactive) | > 100 µM (inactive) | > 100 µM (inactive) | > 100 µM (inactive) | > 100 µM (inactive) | 46.2 µM (inactive) | > 100 µM (inactive) | > 100 µM (inactive) | > 100 µM (inactive) | > 100 µM (inactive) | – | – | – | – | – | –
2 | CCOc1ccccc1N1C(=O)C(=O)C(c2nc3ccccc3o2)/C(=N\N)C1=O (centres undefined) | > 100 µM (inactive) | > 100 µM (inactive) | > 100 µM (inactive) | > 100 µM (inactive) | > 100 µM (inactive) | > 100 µM (inactive) | > 100 µM (inactive) | > 100 µM (inactive) | 27.1 µM (inactive) | > 100 µM (inactive) | > 100 µM (inactive) | > 100 µM (inactive) | > 100 µM (inactive) | > 100 µM (inactive) | > 100 µM (inactive) | – | – | – | – | –
3 | COc1cc2cc(OC(C)=O)c3cc4c(cc3c2c(OC)c1OC)OCO4 | > 100 µM (inactive) | > 100 µM (inactive) | > 100 µM (inactive) | > 100 µM (inactive) | – | > 100 µM (inactive) | > 100 µM (inactive) | > 100 µM (inactive) | > 100 µM (inactive) | > 100 µM (inactive) | – | > 100 µM (inactive) | > 100 µM (inactive) | > 100 µM (inactive) | > 100 µM (inactive) | – | – | – | – | –
4 | O=C1/C(=C/c2ccc(Br)cc2)CCC/C1=C\c1ccc(Br)cc1 | 56.8 µM (inactive) | 11.9 µM (inactive) | – | 3.03 µM (inactive) | 15.1 µM (inactive) | 19.7 µM (inactive) | 13.9 µM (inactive) | 3.4 µM (inactive) | 10.1 µM (inactive) | 5.22 µM (inactive) | 29.2 µM (inactive) | 12.4 µM (inactive) | 16 µM (inactive) | 15.3 µM (inactive) | 2.12 µM (inactive) | – | – | – | – | –
5 | N#C/C(N)=C(C#N)/N=C/NCCO | > 100 µM (inactive) | > 100 µM (inactive) | > 100 µM (inactive) | > 100 µM (inactive) | > 100 µM (inactive) | > 100 µM (inactive) | > 100 µM (inactive) | > 100 µM (inactive) | > 100 µM (inactive) | – | > 100 µM (inactive) | > 100 µM (inactive) | > 100 µM (inactive) | > 100 µM (inactive) | > 100 µM (inactive) | > 100 µM (inactive) | > 100 µM (inactive) | > 100 µM (inactive) | > 100 µM (inactive) | > 100 µM (inactive)
6 | N#CCN1CCN(CC#N)CCN(CC#N)CCN(CC#N)CC1 | 46.8 µM (inactive) | > 100 µM (inactive) | > 100 µM (inactive) | > 100 µM (inactive) | 80.2 µM (inactive) | > 100 µM (inactive) | > 100 µM (inactive) | > 100 µM (inactive) | > 100 µM (inactive) | – | > 100 µM (inactive) | > 100 µM (inactive) | > 100 µM (inactive) | > 100 µM (inactive) | > 100 µM (inactive) | > 100 µM (inactive) | 43.1 µM (inactive) | > 100 µM (inactive) | > 100 µM (inactive) | > 100 µM (inactive)
7 | CCOC(=O)CC(N1CC1)N1CC1 | > 10 µM (inactive) | > 10 µM (inactive) | > 10 µM (inactive) | > 10 µM (inactive) | > 10 µM (inactive) | > 10 µM (inactive) | > 10 µM (inactive) | > 10 µM (inactive) | > 10 µM (inactive) | – | > 10 µM (inactive) | > 10 µM (inactive) | > 10 µM (inactive) | > 10 µM (inactive) | > 10 µM (inactive) | > 10 µM (inactive) | > 10 µM (inactive) | > 10 µM (inactive) | > 10 µM (inactive) | > 10 µM (inactive)
8 | CC(C)(C)c1cc(/C=C(\C#N)C2=NCCO2)cc(C(C)(C)C)c1O | 3.31 µM (inactive) | 3.28 µM (inactive) | 2.86 µM (inactive) | 5.02 µM (inactive) | 4.31 µM (inactive) | 2.94 µM (inactive) | 2.38 µM (inactive) | 3.57 µM (inactive) | 3.13 µM (inactive) | – | 3.04 µM (inactive) | 4.44 µM (inactive) | 3.77 µM (inactive) | 6.58 µM (inactive) | 6.35 µM (inactive) | 2.66 µM (inactive) | 3.4 µM (inactive) | 2.92 µM (inactive) | 4.42 µM (inactive) | 4.94 µM (inactive)
9 | Cc1ccc(Nc2nc3ccccc3c(=O)n2N)cc1 | > 100 µM (inactive) | > 100 µM (inactive) | > 100 µM (inactive) | > 100 µM (inactive) | > 100 µM (inactive) | > 100 µM (inactive) | > 100 µM (inactive) | > 100 µM (inactive) | > 100 µM (inactive) | – | > 100 µM (inactive) | > 100 µM (inactive) | > 100 µM (inactive) | 88.3 µM (inactive) | > 100 µM (inactive) | > 100 µM (inactive) | > 100 µM (inactive) | > 100 µM (inactive) | > 100 µM (inactive) | > 100 µM (inactive)
10 | Cc1cc(N(CCOS(C)(=O)=O)CCOS(C)(=O)=O)ccc1/C=N/c1ccc(-c2csc(-c3ccc(Br)cc3)n2)cc1 | 1.98 µM (inactive) | 1.84 µM (inactive) | 2.95 µM (inactive) | 9.08 µM (inactive) | 3.66 µM (inactive) | 10.7 µM (inactive) | 14.2 µM (inactive) | 13.3 µM (inactive) | 26.5 µM (inactive) | – | 0.285 µM (active) | 2.65 µM (inactive) | 1.17 µM (inactive) | 5.43 µM (inactive) | 31.2 µM (inactive) | 15.1 µM (inactive) | 1.02 µM (active) | 1.7 µM (inactive) | 14.7 µM (inactive) | 1.91 µM (inactive)
11 | CC1=C[C@@H](C)C[C@]2(C)CC[C@H](O2)[C@]23CC[C@](CO)(C[C@H](O2)[C@@H]2O[C@@](C)(CC2=O)[C@@H](O)[C@H]2CC[C@@]4(CCC[C@@H](O4)[C@H](C)C(=O)O[C@H]4C[C@H]([C@]5(O)OCC[C@H](C)[C@@H]5O)O[C@H]4C=C1)O2)O3 | 0.0177 µM (active) | 0.00843 µM (active) | 0.00341 µM (active) | 0.0258 µM (active) | 0.00325 µM (active) | 0.0212 µM (active) | 0.0142 µM (active) | 0.757 µM (active) | 0.0179 µM (active) | – | 0.00724 µM (active) | 0.0294 µM (active) | 0.00272 µM (active) | 0.00373 µM (active) | 0.0124 µM (active) | > 5.18 µM (inactive) | > 10 µM (inactive) | 0.0139 µM (active) | 0.0951 µM (active) | 0.247 µM (active)
